Measurements published in US4731451A, “N-((2-oxo-3(2H)benzothiazolyl)methyl)-2-chloroacetanilides” (Monsanto Company, priority 1980, dated 1988).

Legend:
Assay type in all cases: in vivo
Downy Brome [1] = experiment: Pre-emergent herbicidal activity (Table II); settings: 2-3 weeks
Protocol: (§1) The pre-emergence tests are conducted as follows:
(§2) A good grade of top soil is placed in aluminum pans and compacted to a depth of three-eighths to one-half inch from the top of the pan. On the top of the soil is placed a predetermined number of seeds or vegetative propagules of various plant species. The soil required to level fill the pans after seeding or adding vegetative propagules is weighed into a pan. A known amount of the active ingredient applied in a solvent or as a wettable powder suspension and the soil are thoroughly mixed, and used as a cover layer for prepared pans. After treatment, the pans are moved into a greenhouse bench where they are watered from below as needed to give adequate moisture for germination and growth.
(§3) Approximately 2-3 weeks after seeding and treating, the plants are observed and the results recorded. The herbicidal rating is obtained by means of fixed scale based on the percent injury of each plant species. The ratings are defined as follows: […]
(§4) The plant species utilized in one set of tests, the data for which are shown in Table II, are identified by letter in accordance with the following legend: […]

Lambsquarters [2] = experiment: Pre-emergent herbicidal activity (Table II); settings: 2-3 weeks
Protocol: as §1, §2, §3, §4

Smartweed [3] = experiment: Pre-emergent herbicidal activity (Table II); settings: 2-3 weeks
Protocol: as §1, §2, §3, §4

Canada Thistle = experiment: Pre-emergent herbicidal activity (Table II); settings: 2-3 weeks
Protocol: as §1, §2, §3, §4

Johnsongrass = experiment: Pre-emergent herbicidal activity (Table II); settings: 2-3 weeks
Protocol: as §1, §2, §3, §4

Barnyardgrass [4] = experiment: Pre-emergent herbicidal activity (Table II); settings: 2-3 weeks
Protocol: as §1, §2, §3, §4

Velvetleaf [5] = experiment: Pre-emergent herbicidal activity (Table II); settings: 2-3 weeks
Protocol: as §1, §2, §3, §4

Cocklebur [6] = experiment: Pre-emergent herbicidal activity (Table II); settings: 2-3 weeks
Protocol: as §1, §2, §3, §4

Quackgrass = experiment: Pre-emergent herbicidal activity (Table II); settings: 2-3 weeks
Protocol: as §1, §2, §3, §4

Yellow Nutsedge = experiment: Pre-emergent herbicidal activity (Table II); settings: 2-3 weeks
Protocol: as §1, §2, §3, §4

Morningglory [7] = experiment: Pre-emergent herbicidal activity (Table II); settings: 2-3 weeks
Protocol: as §1, §2, §3, §4

Downy Brome [8] = experiment: Pre-emergent herbicidal activity (Table III)
Protocol: as §1, §2, §3
(§5) The compounds were further tested by utilizing the above procedure on the following plant species: […]

Lambsquarters [9] = experiment: Pre-emergent herbicidal activity (Table III)
Protocol: as §1, §2, §3, §5

Smartweed [10] = experiment: Pre-emergent herbicidal activity (Table III)
Protocol: as §1, §2, §3, §5

Panicum = experiment: Pre-emergent herbicidal activity (Table III)
Protocol: as §1, §2, §3, §5

Sugarbeet = experiment: Pre-emergent herbicidal activity (Table III)
Protocol: as §1, §2, §3, §5

Hemp Sesbania = experiment: Pre-emergent herbicidal activity (Table III)
Protocol: as §1, §2, §3, §5

Crabgrass = experiment: Pre-emergent herbicidal activity (Table III)
Protocol: as §1, §2, §3, §5

Wild Buckwheat = experiment: Pre-emergent herbicidal activity (Table III)
Protocol: as §1, §2, §3, §5

Barnyardgrass [11] = experiment: Pre-emergent herbicidal activity (Table III)
Protocol: as §1, §2, §3, §5

Wheat = experiment: Pre-emergent herbicidal activity (Table III)
Protocol: as §1, §2, §3, §5

Velvetleaf [12] = experiment: Pre-emergent herbicidal activity (Table III)
Protocol: as §1, §2, §3, §5

Cocklebur [13] = experiment: Pre-emergent herbicidal activity (Table III)
Protocol: as §1, §2, §3, §5

Soybean = experiment: Pre-emergent herbicidal activity (Table III)
Protocol: as §1, §2, §3, §5

Sorghum = experiment: Pre-emergent herbicidal activity (Table III)
Protocol: as §1, §2, §3, §5

Rice = experiment: Pre-emergent herbicidal activity (Table III)
Protocol: as §1, §2, §3, §5

Morningglory [14] = experiment: Pre-emergent herbicidal activity (Table III)
Protocol: as §1, §2, §3, §5
Also: ranges in brackets are in %.

CC1=C(N(Cn2c(=O)sc3ccc(Cl)cc32)C(=O)CCl)C(C)CCC1 (stereo not drawn) [Example 6, N--[(5-chloro-2-oxo-3(2H)--benzothiazolyl)methyl]-N--(2,6-dimethyl-1-cyclohexen-1-yl)-2-chloroacetamide]
Herbicidal rating (Downy Brome [1]; 5.6 kg/ha): 0 (0-24) | Herbicidal rating (Downy Brome [1]; 11.2 kg/ha): 0 (0-24) | Herbicidal rating (Lambsquarters [2]; 5.6 kg/ha): 0 (0-24) | Herbicidal rating (Lambsquarters [2]; 11.2 kg/ha): 3 (75-100) | Herbicidal rating (Smartweed [3]; 5.6 kg/ha): 0 (0-24) | Herbicidal rating (Smartweed [3]; 11.2 kg/ha): 0 (0-24) | Herbicidal rating (Canada Thistle; 5.6 kg/ha): 0 (0-24) | Herbicidal rating (Canada Thistle; 11.2 kg/ha): 1 (25-49) | Herbicidal rating (Johnsongrass; 5.6 kg/ha): 0 (0-24) | Herbicidal rating (Johnsongrass; 11.2 kg/ha): 0 (0-24) | Herbicidal rating (Barnyardgrass [4]; 5.6 kg/ha): 1 (25-49) | Herbicidal rating (Barnyardgrass [4]; 11.2 kg/ha): 3 (75-100) | Herbicidal rating (Velvetleaf [5]; 5.6 kg/ha): 0 (0-24) | Herbicidal rating (Velvetleaf [5]; 11.2 kg/ha): 0 (0-24) | Herbicidal rating (Cocklebur [6]; 5.6 kg/ha): 0 (0-24) | Herbicidal rating (Cocklebur [6]; 11.2 kg/ha): 0 (0-24) | Herbicidal rating (Quackgrass; 5.6 kg/ha): 0 (0-24) | Herbicidal rating (Quackgrass; 11.2 kg/ha): 1 (25-49) | Herbicidal rating (Yellow Nutsedge; 5.6 kg/ha): 0 (0-24) | Herbicidal rating (Yellow Nutsedge; 11.2 kg/ha): 0 (0-24) | Herbicidal rating (Morningglory [7]; 5.6 kg/ha): 0 (0-24) | Herbicidal rating (Morningglory [7]; 11.2 kg/ha): 0 (0-24) | Herbicidal rating (Downy Brome [8]; 1.12 kg/ha): 0 (0-24) | Herbicidal rating (Downy Brome [8]; 5.6 kg/ha): 0 (0-24) | Herbicidal rating (Lambsquarters [9]; 1.12 kg/ha): 3 (75-100) | Herbicidal rating (Lambsquarters [9]; 5.6 kg/ha): 1 (25-49) | Herbicidal rating (Smartweed [10]; 1.12 kg/ha): 2 (50-74) | Herbicidal rating (Smartweed [10]; 5.6 kg/ha): 1 (25-49) | Herbicidal rating (Panicum; 1.12 kg/ha): 0 (0-24) | Herbicidal rating (Panicum; 5.6 kg/ha): 0 (0-24) | Herbicidal rating (Sugarbeet; 1.12 kg/ha): 1 (25-49) | Herbicidal rating (Sugarbeet; 5.6 kg/ha): 1 (25-49) | Herbicidal rating (Hemp Sesbania; 1.12 kg/ha): 3 (75-100) | Herbicidal rating (Hemp Sesbania; 5.6 kg/ha): 3 (75-100) | Herbicidal rating (Crabgrass; 1.12 kg/ha): 2 (50-74) | Herbicidal rating (Crabgrass; 5.6 kg/ha): 3 (75-100) | Herbicidal rating (Wild Buckwheat; 1.12 kg/ha): 0 (0-24) | Herbicidal rating (Wild Buckwheat; 5.6 kg/ha): 0 (0-24) | Herbicidal rating (Barnyardgrass [11]; 1.12 kg/ha): 0 (0-24) | Herbicidal rating (Barnyardgrass [11]; 5.6 kg/ha): 1 (25-49) | Herbicidal rating (Wheat; 1.12 kg/ha): 0 (0-24) | Herbicidal rating (Wheat; 5.6 kg/ha): 0 (0-24) | Herbicidal rating (Velvetleaf [12]; 1.12 kg/ha): 0 (0-24) | Herbicidal rating (Velvetleaf [12]; 5.6 kg/ha): 0 (0-24) | Herbicidal rating (Cocklebur [13]; 1.12 kg/ha): 0 (0-24) | Herbicidal rating (Cocklebur [13]; 5.6 kg/ha): 0 (0-24) | Herbicidal rating (Soybean; 1.12 kg/ha): 0 (0-24) | Herbicidal rating (Soybean; 5.6 kg/ha): 0 (0-24) | Herbicidal rating (Sorghum; 1.12 kg/ha): 0 (0-24) | Herbicidal rating (Sorghum; 5.6 kg/ha): 0 (0-24) | Herbicidal rating (Rice; 1.12 kg/ha): 1 (25-49) | Herbicidal rating (Rice; 5.6 kg/ha): 0 (0-24) | Herbicidal rating (Morningglory [14]; 1.12 kg/ha): 0 (0-24) | Herbicidal rating (Morningglory [14]; 5.6 kg/ha): 0 (0-24)
